Measured values published in ChEMBL document CHEMBL1201862, “PubChem BioAssay data set” (2004).
Calls of active or inactive are those of the source.

Columns and labels:
[1] = microbe, parasite or virus in culture; type: functional; settings: Mycobacterium tuberculosis
[2] = target: Aryl hydrocarbon receptor (Homo sapiens, UniProt P35869); assay: Luminescence-based cell-based high throughput dose response assay for activators of the Aryl Hydrocarbon Receptor (AHR). [Related pubchem assays: 2796 (Primary screen (AHR activators in singlicate)), 2845 (Confirmation screen (AHR activators in triplicate)), 434939 (Counterscreen (PXR activators in triplicate)), 2804 (Summary (AHR activators))]; type: ADME
[3] = THP-1 cell cytotoxicity, dose response, cytotoxicity control for non-replicating M. tuberculosis project (AID 489025); type: functional
[4] = Vero E6 cell cytotoxicity, dose response, cytotoxicity control for non-replicating M. tuberculosis project, secondary assay (AID 492998); type: functional, VeroE6; settings: Vero C1008
cells = type: functional
[5] = target: Neuropeptide Y receptor type 2 (Homo sapiens, UniProt P49146); assay: IC50 for human NPY-Y2 blockade – cell-based, counter-screen for NPY-Y1 antagonist project, dose response (AID 1278); type: functional
[6] = Dd2 parasite growth inhibition in erythrocytes – SYBR Green, dry powder samples, set 9, dose response (AID 1159568); type: functional, cell-based
[7] = target: G-protein coupled receptor 183 (Homo sapiens, UniProt P32249); assay: SAR confirmation of small molecule antagonists of the EBI2 receptor via a luminescent beta-arrestin assa.; type: functional
Phospholipase D2 = Phospholipase D2 (Homo sapiens, UniProt O14939); assay: PLD2 Cellular Concentration Response Study.; type: functional
Phospholipase D1 = Phospholipase D1 (Homo sapiens, UniProt Q13393); assay: PLD1 Cellular Concentration Response Study.; type: functional
[8] = target: Peroxisome proliferator-activated receptor gamma/Nuclear receptor coactivator 1 (Homo sapiens, UniProt P37231); assay: (§1) TR-FRET dose response biochemical High Throughput Screening assay for agonists of the steroid receptor coactivator 1 (SRC-1) recruitment by the peroxisome proliferator-activated receptor gamma (PPAR gamma): non-selective agonists. [Related pubchem assays (depositor defined):AID1300, AID1808, AID504735, AID631]; type: protein assay
[9] = target: Peroxisome proliferator-activated receptor gamma/Nuclear receptor coactivator 3 (Homo sapiens, UniProt P37231); assay: as §1, with “3 (SRC-3)” for “1 (SRC-1)”, “assays: 1301 (Confirmation screen.), 1048 (Primary screen.)]” for “assays (depositor defined):AID1300, AID1808, AID504735, AID631]”; type: functional
[10] = target: Peroxisome proliferator-activated receptor gamma/Nuclear receptor coactivator 2 (Homo sapiens, UniProt P37231); assay: TR-FRET dose response biochemical High Throughput Screening assay for agonists of the steroid receptor coactivator 2 (SRC-2) recruitment by the peroxisome proliferator-activated receptor gamma (PPAR gamma): non-selective agonists. [Related pubchem assays: 1297, 1032 ]; type: functional
Nonstructural protein 1 = Nonstructural protein 1 (Influenza A virus, UniProt Q194T2); type: functional, Influenza A virus (A/California/07/2009(H1N1))
[11] = target: T1, Heat shock factor protein 1 (Mus musculus, UniProt P38532); assay: enhancement of HSF1-driven luciferase signal – cell-based, NIH3T3, luminescence, dose retest, confirmation (AID 435004); type: functional;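 note: stress induced by proteasome inhibitor MG132 added 30 min after compound; luciferase reporter driven by HSF1 response element in NIH3T3 cells; actives raise luminescence as potentiators of the MG132 stress response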
T1 sequence (P38532 whole entry): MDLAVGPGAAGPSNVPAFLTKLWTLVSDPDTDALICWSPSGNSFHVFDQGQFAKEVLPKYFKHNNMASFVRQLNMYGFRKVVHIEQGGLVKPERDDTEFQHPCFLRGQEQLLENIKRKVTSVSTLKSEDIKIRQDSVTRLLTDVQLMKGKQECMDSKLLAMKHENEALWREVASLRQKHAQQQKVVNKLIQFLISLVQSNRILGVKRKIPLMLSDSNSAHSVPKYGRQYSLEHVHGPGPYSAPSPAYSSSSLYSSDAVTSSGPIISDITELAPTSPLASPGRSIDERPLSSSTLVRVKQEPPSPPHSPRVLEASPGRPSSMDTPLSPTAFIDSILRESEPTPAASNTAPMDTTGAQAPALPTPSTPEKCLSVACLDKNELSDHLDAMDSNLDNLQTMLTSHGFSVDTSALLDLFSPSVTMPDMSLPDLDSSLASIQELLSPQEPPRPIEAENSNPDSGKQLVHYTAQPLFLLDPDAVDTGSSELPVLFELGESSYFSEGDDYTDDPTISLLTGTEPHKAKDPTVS

[12] = target: SWI/SNF-related matrix-associated actin-dependent regulator of chromatin subfamily A member 2 (Homo sapiens, UniProt P51531); assay: Luminescence-based cell-based high throughput dose response assay to identify activators of the function of SWI/SNF related, matrix associated, actin dependent regulator of chromatin, subfamily a, member 2 (SMARCA2, BRM).; type: functional
[13] = Counterscreen for activators of the function of SWI/SNF related, matrix associated, actin dependent regulator of chromatin, subfamily a, member 2 (SMARCA2, BRM): Luminescence-based cell-based high throughput dose response assay to identify non-selective compounds using the VP16 reporter assay.; type: functional
Fibrinogen beta chain [14] = target: T2, Fibrinogen beta chain (Homo sapiens, UniProt P02675); assay: Fluorescence polarization-based biochemical high throughput dose response assay to identify inhibitors that disrupt the binding of a cyclic peptide (Tn6) to the fibrin proteolytic product D-Dimer and fragment E complex [DD(E )].
Fibrinogen beta chain [15] = target: T2, Fibrinogen beta chain; assay: Fluorescence polarization-based biochemical high throughput dose response assay to identify inhibitors that disrupt the binding of a cyclic peptide (Tn7) to the fibrin proteolytic product D-Dimer and fragment E complex [DD(E )].
[16] = CellTiter-Glo luminescence survival assay, SW480 colon tumor line, concentration-response curve, half-maximal inhibitory concentration (AID 1117338); type: functional
[17] = RKO cell viability reduction, dose response, CellTiter-Glo luminescence (AID 1117322); type: functional
[18] = cytotoxicity toward HCT116 cells – cell-based, CellTiter-Glo luminescence, IC50, dose response (AID 1117332); type: functional; settings: HCT-116
[19] = SNU-C1 cell viability reduction, dose response, CellTiter-Glo luminescence (AID 1117323); type: functional, cell-based
[20] = cytotoxicity toward Colo320 cells – cell-based, CellTiter-Glo luminescence, IC50, dose response (AID 1117334); type: functional; settings: COLO 320
[21] = cytotoxicity toward HT-29 cells – cell-based, CellTiter-Glo luminescence, IC50, dose response (AID 1117330); type: functional
[22] = Reduced DLD-1 viability, concentration-response, CellTiter-Glo luminescence (AID 1117352); type: functional
[23] = HCT116 cell viability decrease, GSK3B pretreatment – CellTiter-Glo, IC50, dose response (AID 1117339); type: functional; settings: HCT-116
[24] = rise of 2N DNA cells, HeLa – IC50, dose response (AID 1117349); type: functional, cell-based
[25] = rise of 4N DNA cells, HeLa – IC50, dose response (AID 1117351); type: functional, cell-based

T2 sequence (P02675 whole entry, the tested form may be a part): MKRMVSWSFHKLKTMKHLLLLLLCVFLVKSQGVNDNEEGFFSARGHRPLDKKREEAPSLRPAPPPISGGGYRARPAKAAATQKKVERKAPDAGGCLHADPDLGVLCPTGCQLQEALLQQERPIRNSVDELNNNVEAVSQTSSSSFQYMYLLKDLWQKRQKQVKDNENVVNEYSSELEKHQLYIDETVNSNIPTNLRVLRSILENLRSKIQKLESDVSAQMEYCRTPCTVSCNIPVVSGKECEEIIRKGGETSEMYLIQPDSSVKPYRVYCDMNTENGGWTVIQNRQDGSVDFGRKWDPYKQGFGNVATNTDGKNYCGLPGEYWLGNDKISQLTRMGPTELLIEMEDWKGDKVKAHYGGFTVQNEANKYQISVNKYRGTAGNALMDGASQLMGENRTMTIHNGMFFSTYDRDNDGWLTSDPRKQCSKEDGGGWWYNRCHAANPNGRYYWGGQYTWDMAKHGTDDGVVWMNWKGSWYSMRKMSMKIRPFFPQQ
Chain of Phospholipase D2 (O14939 whole entry): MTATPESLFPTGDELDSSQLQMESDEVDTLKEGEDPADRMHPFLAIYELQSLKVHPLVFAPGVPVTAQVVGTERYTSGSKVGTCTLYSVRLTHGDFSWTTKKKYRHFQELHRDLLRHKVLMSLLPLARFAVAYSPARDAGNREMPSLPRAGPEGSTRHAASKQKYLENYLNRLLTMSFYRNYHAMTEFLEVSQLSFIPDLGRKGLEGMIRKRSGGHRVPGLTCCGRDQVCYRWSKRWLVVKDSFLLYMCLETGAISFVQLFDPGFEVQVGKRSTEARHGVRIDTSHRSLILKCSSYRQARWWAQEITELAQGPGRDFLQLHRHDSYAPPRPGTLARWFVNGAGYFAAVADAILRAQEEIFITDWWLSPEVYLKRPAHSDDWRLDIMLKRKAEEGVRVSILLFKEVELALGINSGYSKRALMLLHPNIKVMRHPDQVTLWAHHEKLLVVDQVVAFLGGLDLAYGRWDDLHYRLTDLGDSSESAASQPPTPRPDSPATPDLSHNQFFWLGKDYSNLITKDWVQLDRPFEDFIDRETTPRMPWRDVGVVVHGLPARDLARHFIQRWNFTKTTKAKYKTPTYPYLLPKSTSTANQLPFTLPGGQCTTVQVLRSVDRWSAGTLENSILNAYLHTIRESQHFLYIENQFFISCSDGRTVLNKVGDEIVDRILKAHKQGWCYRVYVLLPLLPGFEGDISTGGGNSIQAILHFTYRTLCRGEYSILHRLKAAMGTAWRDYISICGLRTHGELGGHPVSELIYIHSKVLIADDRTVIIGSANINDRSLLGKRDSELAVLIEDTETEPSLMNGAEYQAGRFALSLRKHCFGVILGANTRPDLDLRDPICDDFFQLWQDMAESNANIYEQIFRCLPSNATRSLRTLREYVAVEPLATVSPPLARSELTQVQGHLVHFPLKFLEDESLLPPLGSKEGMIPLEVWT
Chain of SWI/SNF-related matrix-associated actin-dependent regulator of chromatin subfamily A member 2 (P51531 whole entry): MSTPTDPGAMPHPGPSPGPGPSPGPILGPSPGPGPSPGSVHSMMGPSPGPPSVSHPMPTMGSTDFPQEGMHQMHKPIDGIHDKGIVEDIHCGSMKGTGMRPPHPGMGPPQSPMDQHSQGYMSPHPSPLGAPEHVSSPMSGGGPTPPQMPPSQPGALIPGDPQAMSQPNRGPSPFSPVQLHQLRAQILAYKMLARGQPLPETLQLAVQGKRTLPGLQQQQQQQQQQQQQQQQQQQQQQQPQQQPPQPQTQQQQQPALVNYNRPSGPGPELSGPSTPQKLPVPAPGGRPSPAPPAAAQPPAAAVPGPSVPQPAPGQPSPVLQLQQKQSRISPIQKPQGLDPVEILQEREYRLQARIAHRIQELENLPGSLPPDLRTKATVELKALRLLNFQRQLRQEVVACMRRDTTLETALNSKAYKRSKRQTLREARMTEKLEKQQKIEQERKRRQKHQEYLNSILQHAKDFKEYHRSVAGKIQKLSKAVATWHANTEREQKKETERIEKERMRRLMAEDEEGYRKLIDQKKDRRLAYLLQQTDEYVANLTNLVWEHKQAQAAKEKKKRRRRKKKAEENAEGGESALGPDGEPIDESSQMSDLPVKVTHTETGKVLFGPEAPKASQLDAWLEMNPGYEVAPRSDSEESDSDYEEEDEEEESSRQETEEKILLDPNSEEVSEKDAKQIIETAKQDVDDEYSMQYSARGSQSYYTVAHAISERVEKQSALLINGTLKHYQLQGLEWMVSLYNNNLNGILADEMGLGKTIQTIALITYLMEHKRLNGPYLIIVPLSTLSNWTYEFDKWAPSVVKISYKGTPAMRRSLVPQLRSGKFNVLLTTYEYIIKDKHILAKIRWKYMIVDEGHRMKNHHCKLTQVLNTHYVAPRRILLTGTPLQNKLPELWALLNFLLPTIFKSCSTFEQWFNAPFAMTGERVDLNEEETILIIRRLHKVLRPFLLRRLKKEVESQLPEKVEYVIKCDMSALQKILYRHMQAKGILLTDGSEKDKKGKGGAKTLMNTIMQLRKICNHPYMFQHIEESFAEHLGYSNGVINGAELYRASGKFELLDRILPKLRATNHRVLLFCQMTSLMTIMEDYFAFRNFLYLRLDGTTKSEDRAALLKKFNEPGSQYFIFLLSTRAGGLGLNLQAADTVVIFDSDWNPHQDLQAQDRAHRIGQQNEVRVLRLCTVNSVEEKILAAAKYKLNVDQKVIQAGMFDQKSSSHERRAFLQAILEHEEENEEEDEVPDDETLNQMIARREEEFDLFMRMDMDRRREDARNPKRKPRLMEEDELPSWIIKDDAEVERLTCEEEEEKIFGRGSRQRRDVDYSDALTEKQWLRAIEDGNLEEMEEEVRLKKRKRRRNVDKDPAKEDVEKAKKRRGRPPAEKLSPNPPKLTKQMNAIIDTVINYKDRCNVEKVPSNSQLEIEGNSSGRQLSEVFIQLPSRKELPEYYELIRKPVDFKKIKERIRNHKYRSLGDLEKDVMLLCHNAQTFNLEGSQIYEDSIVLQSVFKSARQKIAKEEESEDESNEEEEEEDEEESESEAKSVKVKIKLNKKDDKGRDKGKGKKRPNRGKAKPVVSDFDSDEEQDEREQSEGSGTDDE
Chain of Peroxisome proliferator-activated receptor gamma/Nuclear receptor coactivator 3 (P37231 whole entry): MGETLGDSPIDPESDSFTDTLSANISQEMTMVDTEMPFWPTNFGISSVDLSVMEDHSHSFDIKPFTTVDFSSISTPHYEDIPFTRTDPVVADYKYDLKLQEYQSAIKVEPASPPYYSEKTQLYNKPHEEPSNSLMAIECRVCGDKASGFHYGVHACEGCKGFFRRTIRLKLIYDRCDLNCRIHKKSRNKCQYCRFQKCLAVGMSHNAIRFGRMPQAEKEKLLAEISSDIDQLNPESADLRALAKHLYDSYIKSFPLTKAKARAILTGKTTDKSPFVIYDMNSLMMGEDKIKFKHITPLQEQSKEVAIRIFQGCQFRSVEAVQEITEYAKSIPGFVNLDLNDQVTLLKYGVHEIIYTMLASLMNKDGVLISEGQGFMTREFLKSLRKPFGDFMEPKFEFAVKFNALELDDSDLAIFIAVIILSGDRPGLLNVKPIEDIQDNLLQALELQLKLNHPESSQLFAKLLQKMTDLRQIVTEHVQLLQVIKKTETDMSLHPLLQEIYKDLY
Chain of Peroxisome proliferator-activated receptor gamma/Nuclear receptor coactivator 3 (Q9Y6Q9 whole entry, further chain): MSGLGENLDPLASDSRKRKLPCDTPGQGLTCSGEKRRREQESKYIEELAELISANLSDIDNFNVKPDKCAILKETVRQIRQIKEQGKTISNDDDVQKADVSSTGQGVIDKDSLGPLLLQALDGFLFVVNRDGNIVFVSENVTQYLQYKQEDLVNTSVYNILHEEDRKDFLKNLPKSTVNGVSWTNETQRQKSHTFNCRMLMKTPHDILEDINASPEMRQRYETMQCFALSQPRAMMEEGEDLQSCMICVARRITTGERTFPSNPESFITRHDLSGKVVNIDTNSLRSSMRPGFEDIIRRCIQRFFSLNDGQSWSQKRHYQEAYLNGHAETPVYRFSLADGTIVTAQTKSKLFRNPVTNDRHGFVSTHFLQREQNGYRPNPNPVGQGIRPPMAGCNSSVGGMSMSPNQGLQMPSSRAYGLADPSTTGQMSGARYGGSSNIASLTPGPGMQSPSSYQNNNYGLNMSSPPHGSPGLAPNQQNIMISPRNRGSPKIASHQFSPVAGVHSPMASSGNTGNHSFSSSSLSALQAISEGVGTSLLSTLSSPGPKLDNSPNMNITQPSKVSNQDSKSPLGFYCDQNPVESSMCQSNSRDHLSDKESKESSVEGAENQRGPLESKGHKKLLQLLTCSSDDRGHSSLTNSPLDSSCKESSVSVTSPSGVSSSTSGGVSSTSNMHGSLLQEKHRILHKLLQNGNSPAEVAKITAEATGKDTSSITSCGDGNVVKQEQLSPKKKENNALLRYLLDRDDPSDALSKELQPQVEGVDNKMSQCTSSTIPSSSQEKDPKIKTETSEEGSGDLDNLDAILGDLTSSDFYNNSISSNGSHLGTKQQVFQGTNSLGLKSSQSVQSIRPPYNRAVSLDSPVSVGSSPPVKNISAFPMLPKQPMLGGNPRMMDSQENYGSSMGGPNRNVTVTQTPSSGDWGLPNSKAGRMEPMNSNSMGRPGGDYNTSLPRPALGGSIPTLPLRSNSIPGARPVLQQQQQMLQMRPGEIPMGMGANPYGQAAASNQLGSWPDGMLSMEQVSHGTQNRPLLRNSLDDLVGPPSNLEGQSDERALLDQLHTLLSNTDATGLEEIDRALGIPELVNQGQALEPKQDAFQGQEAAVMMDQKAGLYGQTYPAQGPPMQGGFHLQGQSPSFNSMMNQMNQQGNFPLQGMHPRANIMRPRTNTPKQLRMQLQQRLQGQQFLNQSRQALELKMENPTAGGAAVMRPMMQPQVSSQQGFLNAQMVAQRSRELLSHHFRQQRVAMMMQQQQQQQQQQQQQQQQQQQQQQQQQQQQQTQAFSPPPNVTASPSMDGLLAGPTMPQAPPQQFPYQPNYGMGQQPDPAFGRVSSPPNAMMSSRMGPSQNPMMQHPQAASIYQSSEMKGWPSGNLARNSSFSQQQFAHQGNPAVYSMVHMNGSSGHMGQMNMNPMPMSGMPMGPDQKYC

## O=[N+]([O-])c1cc(-c2nc(-c3ccncc3)no2)cc([N+](=O)[O-])c1
[1]
  CC50: > 40 µM (active)
[2]
  EC50: 2.67 µM (active)
[3]
  CC50: 37.5 µM (active)
[4]
  CC50: > 20 µM (active)
cells
  IC50: 3.13 µM (active)

## CC(C)CC(c1nnnn1C1CCCC1)N1CCN(c2ccccc2F)CC1 (centres undefined)
[5]
  IC50: 24.4 µM (not active)

## C[C@H](CO)N1C[C@H](C)[C@@H](CN(C)S(=O)(=O)c2ccc(F)cc2)OCCCC[C@H](C)Oc2ccc(N(C)C)cc2C1=O
[6]
  AC50: 5.9 µM (active)

## COc1ccc(S(=O)(=O)N2CCN(C(=O)/C=C/c3ccc(F)cc3)CC2)cc1
[7]
  IC50: 0.0121 µM (active)

## O=C(NCCN1CCC2(CC1)C(=O)NCN2C(=O)c1cccc(F)c1)c1ccc2ccccc2c1
Phospholipase D2
  IC50: 2.75 µM (active)
Phospholipase D1
  IC50: 8.76 µM (active)

## COc1ccc(N)c2c1C(=O)c1ccccc1C2=O
[8]
  EC50: 20.2 µM (inactive)
[9]
  EC50: 119 µM (not active)
[10]
  EC50: 10.7 µM (not active)
Nonstructural protein 1
  IC50: 31 µM (active)
[11]
  EC50: > 260 µM (inactive)
[12]
  EC50: > 91.1 µM (inactive)
[13]
  EC50: > 91.1 µM (inactive)
Fibrinogen beta chain [14]
  IC50: 4.98 µM (active)
Fibrinogen beta chain [15]
  IC50: > 83.2 µM (inactive)

## ClC1=C(Cl)C2(Cl)C(CBr)CC1(Cl)C2(Cl)Cl (centres undefined) [BROMOCICLEN]
[16]
  IC50: > 20 µM (inactive)
[17]
  IC50: > 20 µM (inactive)
[18]
  IC50: > 20 µM (inactive)
[19]
  IC50: > 20 µM (inactive)
[20]
  IC50: > 20 µM (inactive)
[21]
  IC50: > 20 µM (inactive)
[22]
  IC50: > 20 µM (inactive)
[23]
  IC50: > 20 µM (inactive)

## C=C(C)[C@H]1Cc2c(ccc3c2O[C@@H]2COc4cc(OC)c(OC)cc4[C@@H]2C3=O)O1 [ROTENONE]
[24]
  IC50: 0.311 µM (active)
[25]
  IC50: 0.311 µM (active)
